Activity data for one compound are collected here from ChEMBL document CHEMBL2406925, “Confirmation of quinolone-induced formation of gyrase-DNA conjugates using AFM” (Bioorg Med Chem Lett, 2013).

Experiment [1] relates to Escherichia coli. In words: Induction of Escherichia coli DNA gyrase-mediated pBR322 DNA cleavage at 5 to 20 uM after 30 mins by agarose gel electrophoresis.
Experiment [2] concerns Escherichia coli. Description: Stabilization of reversible Escherichia coli DNA gyrase-pBR322 DNA complex at 20 uM after 15 mins by AFM image analysis.

Molecules are shown by their SMILES. The source made the active and inactive calls. The rule behind the calls is not given here.

For the compound `CCn1cc(C(=O)O)c(=O)c2cc(F)c(N3CCNCC3)cc21`, the result in the experiment with Escherichia coli [1] and in the experiment with Escherichia coli [2] was Active.
